Data reported in ChEMBL document CHEMBL1121424, “Orally active cephalosporins and penicillins” (J Med Chem, 1980).
In brackets after ≈: the same amount, converted by molar mass.

What was measured:
Type in all cases: functional
[1] = system: Enterobacter cloacae; assay: Tested for inhibition of visible growth of Enterobacter cloacae
[2] = system: Klebsiella aerogenes; assay: Tested for inhibition of visible growth of Enterobacter aerogenes
[3] = system: Escherichia coli; assay: Tested for inhibition of visible growth of Escherichia coli
[4] = system: Proteus mirabilis; assay: Tested for inhibition of visible growth of Proteus mirabilis
[5] = Tested for inhibition of visible growth of Salmonella schottmuelleri
[6] = system: Staphylococcus aureus; assay: Tested for inhibition of visible growth of Staphylococcus aureus, benzyl-penicillin sensitive
[7] = system: Streptococcus pyogenes; assay: Tested for inhibition of visible growth of Streptococcus pyogenes
[8] = system: Enterococcus faecalis; assay: Tested for inhibition of visible growth of Streptococcus faecalis
[9] = system: Streptococcus pneumoniae; assay: Tested for inhibition of visible growth of Streptococcus pneumoniae
[10] = system: Klebsiella pneumoniae; assay: Tested for inhibition of visible growth of Klebsiella pneumoniae
[11] = system: Staphylococcus aureus; assay: Tested for inhibition of visible growth of Staphylococcus aureus
[12] = system: Pseudomonas aeruginosa; assay: Tested for inhibition of visible growth of Pseudomonas aeruginosa
[13] = species on record: Mus musculus; assay: Tested for the antimicrobial activity against Staphylococcus aureus (M202) in mice, perorally; details: po
[14] = system: Mus musculus; assay: Tested for the antimicrobial activity against Staphylococcus aureus (M202) in mice, subcutaneously; details: sc
[15] = species on record: Mus musculus; assay: Tested for the antimicrobial activity against Streptococcus pneumoniae (D137) in mice, perorally; details: po
[16] = system: Mus musculus; assay: Tested for the antimicrobial activity against Streptococcus pneumoniae (D137) in mice, subcutaneously; details: sc
[17] = system: Mus musculus; assay: Tested for the antimicrobial activity against Streptococcus pneumoniae (D815) in mice, subcutaneously; details: sc
[18] = species on record: Mus musculus; assay: Tested for the antimicrobial activity against Streptococcus pneumoniae (D815) in mice, perorally; details: po
[19] = species on record: Mus musculus; assay: Tested for the antimicrobial activity against Streptococcus pyogenes (ST139) in mice, perorally; details: po
[20] = system: Mus musculus; assay: Tested for the antimicrobial activity against Streptococcus pyogenes (ST139) in mice, subcutaneously; details: sc
[21] = species on record: Mus musculus; assay: Tested for the antimicrobial activity against Streptococcus pyogenes (St141) in mice, perorally; details: po
[22] = system: Mus musculus; assay: Tested for the antimicrobial activity against Streptococcus pyogenes (St141) in mice, subcutaneously; details: sc
[23] = system: Mus musculus; assay: Tested for the antimicrobial activity against Staphylococcus aureus (M240) in mice, subcutaneously; details: sc
[24] = species on record: Mus musculus; assay: Tested for the antimicrobial activity against Staphylococcus aureus (M240) in mice, perorally; details: po

Structure (SMILES) | MIC [1] [µg/mL] | MIC [2] [µg/mL] | MIC [3] [µg/mL] | MIC [4] [µg/mL] | MIC [5] [µg/mL] | MIC [6] [µg/mL] | MIC [7] [µg/mL] | MIC [8] [µg/mL] | MIC [9] [µg/mL] | MIC [10] [µg/mL] | MIC [11] [µg/mL] | MIC [12] [µg/mL] | other results
CC1=C(C(=O)O)N2C(=O)C(NC(=O)C(N)c3ccc4c(c3)OCCO4)C2SC1 (mixture of isomers) | > 200 | > 200 | 200 | > 200 | 100 | 0.8 | 0.8 | > 200 | 1.6 | 200 | 6.2 | – | –
CC1=C(C(=O)O)N2C(=O)C(NC(=O)C(N)c3ccc4c(c3)CCO4)C2SC1 (racemic) | > 200 | > 200 | 100 (≈ 257 µM) | > 200 | 50 (≈ 128 µM) | 1.6 (≈ 4.11 µM) | 0.4 (≈ 1.03 µM) | > 200 | 3.1 (≈ 7.96 µM) | 50 (≈ 128 µM) | 3.1 (≈ 7.96 µM) | – | –
CC(=O)OCC1=C(C(=O)O)N2C(=O)C(NC(=O)C(N)c3cccc4c3OCO4)C2SC1 (racemic) | > 200 | > 200 | 100 (≈ 222 µM) | 100 (≈ 222 µM) | 25 (≈ 55.6 µM) | 3.1 (≈ 6.9 µM) | 0.2 (≈ 0.445 µM) | 200 (≈ 445 µM) | 0.2 (≈ 0.445 µM) | 50 (≈ 111 µM) | 3.1 (≈ 6.9 µM) | – | –
CC(=O)OCC1=C(C(=O)O)N2C(=O)C(NC(=O)C(N)c3ccc4c(c3)OCO4)C2SC1 (racemic) | > 200 | > 200 | 50 (≈ 111 µM) | 100 (≈ 222 µM) | 12.5 (≈ 27.8 µM) | 3.1 (≈ 6.9 µM) | 0.2 (≈ 0.445 µM) | 200 (≈ 445 µM) | 0.4 (≈ 0.89 µM) | 25 (≈ 55.6 µM) | 6.2 (≈ 13.8 µM) | – | –
CC1(C)SC2C(NC(=O)C(C(=O)O)c3ccc4c(c3)OCO4)C(=O)N2C1C(=O)O (racemic) | 100 (≈ 237 µM) | 50 (≈ 118 µM) | 50 (≈ 118 µM) | 3.1 (≈ 7.34 µM) | 50 (≈ 118 µM) | 0.8 (≈ 1.89 µM) | 0.8 (≈ 1.89 µM) | > 100 | 0.2 (≈ 0.473 µM) | 100 (≈ 237 µM) | 12.5 (≈ 29.6 µM) | 3.1 (≈ 7.34 µM) | –
CC(=O)OCC1=C(C(=O)O)N2C(=O)C(NC(=O)C(O)c3ccc4c(c3)OCO4)C2SC1 (racemic) | > 200 | > 200 | 25 (≈ 55.5 µM) | 50 (≈ 111 µM) | 6.2 (≈ 13.8 µM) | 0.8 (≈ 1.78 µM) | 0.1 (≈ 0.222 µM) | > 200 | 0.1 (≈ 0.222 µM) | 25 (≈ 55.5 µM) | 3.1 (≈ 6.88 µM) | – | –
CC(=O)OCC1=C(C(=O)O)N2C(=O)C(NC(=O)C(O)c3ccc4c(c3)CCO4)C2SC1 (racemic) | > 200 | > 200 | 50 (≈ 111 µM) | 50 (≈ 111 µM) | 12.5 (≈ 27.9 µM) | 0.8 (≈ 1.78 µM) | 0.1 (≈ 0.223 µM) | > 200 | 0.1 (≈ 0.223 µM) | 50 (≈ 111 µM) | 3.1 (≈ 6.91 µM) | – | –
CC1(C)S[C@@H]2[C@H](NC(=O)[C@H](N)c3ccc(O)cc3)C(=O)N2[C@H]1C(=O)O [AMOXICILLIN] | > 100 | > 100 | 6.2 (≈ 17 µM) | 0.4 (≈ 1.09 µM) | 0.4 (≈ 1.09 µM) | 0.1 (≈ 0.274 µM) | ≤ 0.03 | 1.6 (≈ 4.38 µM) | ≤ 0.03 | 0.8 (≈ 2.19 µM) | 100 (≈ 274 µM) | > 100 | ED50 [13]: 0.62 mg/kg; ED50 [14]: 0.62 mg/kg; ED50 [15]: 0.25 mg/kg; ED50 [16]: 0.14 mg/kg; ED50 [17]: 0.05 mg/kg; ED50 [18]: 0.13 mg/kg; ED50 [19]: 0.073 mg/kg; ED50 [20]: 0.063 mg/kg; ED50 [21]: 0.08 mg/kg; ED50 [22]: 0.06 mg/kg; ED50 [23]: 0.074 mg/kg; ED50 [24]: 0.31 mg/kg
CC1(C)S[C@@H]2[C@H](NC(=O)C(C(=O)O)c3ccccc3)C(=O)N2[C@H]1C(=O)O (stereo not given in full) [CARBENICILLIN] | 6.2 (≈ 16.4 µM) | 6.2 (≈ 16.4 µM) | 6.2 (≈ 16.4 µM) | 0.8 (≈ 2.11 µM) | 6.2 (≈ 16.4 µM) | 0.4 (≈ 1.06 µM) | 0.1 (≈ 0.264 µM) | > 100 | 0.4 (≈ 1.06 µM) | 6.2 (≈ 16.4 µM) | 25 (≈ 66.1 µM) | 0.8 (≈ 2.11 µM) | –
CC(=O)OCC1=C(C(=O)O)N2C(=O)[C@@H](NC(=O)Cc3cccs3)[C@H]2SC1 [CEPHALOTHIN] | > 100 | 100 (≈ 252 µM) | 12.5 (≈ 31.5 µM) | 12.5 (≈ 31.5 µM) | 3.1 (≈ 7.82 µM) | 0.2 (≈ 0.504 µM) | 0.1 (≈ 0.252 µM) | 100 (≈ 252 µM) | 0.1 (≈ 0.252 µM) | 3.1 (≈ 7.82 µM) | 0.8 (≈ 2.02 µM) | – | –
